From publication PMC10490226, “Synthesis, Characterization, and Anticancer Activity of New N,N′-Diarylthiourea Derivative against Breast Cancer Cells” (Molecules, 2023)

Legend:
[1] = test system: MCF-7 cells; assay: MTT cytotoxicity test on MCF-7 cells; type: cell-based; conditions: Homo sapiens; for IC50: MCF7, 24 h, MTT, 24 h incubation, doses 50 to 1000 µM, mean of three, read-out: IC50 concentration, 50% inhibition of MCF-7 cell viability; for viability at 50 µM / viability at 100 µM / viability at 150 µM / viability at 300 µM / viability at 600 µM / viability at 1000 µM: MCF7, 24 h, read-out: Cell Viability %; for viability at 50 µM: MCF-7, dose 50 µM; for viability at 100 µM: MCF-7, dose 100 µM; for viability at 150 µM: MCF-7, dose 150 µM; for viability at 300 µM: MCF-7, dose 300 µM; for viability at 600 µM: MCF-7, dose 600 µM; for viability at 1000 µM: MCF-7, dose 1000 µM
Experimental: (§1) The human cells that were utilized in the study included breast cancer cells, specifically the MCF-7 cell lines, along with normal lung cells, specifically the WI38 cell lines. These cell lines were taken from the American Type Culture Collection (ATCC). These cells were maintained in RPMI media with penicillin (100 U/mL), glutamine, 10% fetal bovine serum, and streptomycin ([…]) in a humidified incubator (5% CO2, 37 °C).
As indicated before, the prepared compounds (1–6) were tested for their capacity to inhibit the growth of MCF-7 cancer cells, employing the MTT experiment. In short, 1 × 10^5 of MCF-7 cells/mL were seeded into each well of a 96-well plate and cultured in the growth mixture at 37 °C overnight. The MCF-7 cells were then exposed to the test compounds at 37 °C for 24 h at doses that ranged from 50 to 1000 µM.
The cells were then observed under an inverted microscope (Leica DMI3000B, Mannheim, Germany) for toxicity markers in both the control and treated cells. Following this, the cells were subjected to MTT solution, which caused MTT to be converted into formazan (MTT’s metabolic product), the amount of which was directly proportionate to the total number of viable cells. The formazan crystal was then extracted from the cells by treating them with dimethyl sulfoxide. Microplate reader (Bio-Rad, Hercules, CA, USA) readings were taken at 570 nm, and the percentage of live MCF-7 cells was calculated using the following Formula (1) to indicate the influence of the studied compounds on the proliferation of the tested cells. Cell viability % = (Abs. of tested compound − Abs. of blank)/(Abs. of control − Abs. of blank) × 100 (1)
(§2) The half-suppressing dose (IC50) of the tested compounds was estimated via a dose-response curve following incubation for 24 h. To further determine whether the compounds were safe for use on living tissues, the MTT technique was used at concentrations ranging from 50 to 1000 µM to analyze the influence of the compounds on the viability of healthy WI38 cells. Results are presented as the mean of three independent evaluations of each value.

[2] = test system: wi38 cells; assay: MTT viability test on normal WI38 lung cells; type: cell-based, human
Experimental: as §1, §2

[3] = test system: MCF-7 cells; assay: Lactate dehydrogenase (LDH) leakage test (ELISA); type: cell-based, human; conditions: untreated control 85.35 ± 4.2 U/L, p < 0.001
Experimental: The levels of the released lactate dehydrogenase enzyme (LDH) in compound 4-treated MCF-7 cells were detected using the double-antibody sandwich ELISA technique (SunRed, Cat. N. 201-28-0094) to further estimate the cytotoxic impact of the tested compound 4 against MCF-7 cells. In brief, the compound 4-treated MCF-7 cancer cells were centrifuged, and 40 µL of the resulted supernatant was added to the tested wells. Following this, LDH-antibody (10 µL) and Streptavidin-HRP (50 µL) were transferred to each well for analysis. Subsequently, the 96-well plate was gently shaken, and incubated for 60 min at 37 °C. Following washing, chromogen solution A (50 µL) and chromogen solution B (50 µL) were transferred to each of the test wells, and the plates were left to incubate at 37 Celsius, out of the light, for 10 min. Next, each well was treated with stop solution (50 µL). Finally, the optical density, OD, for the tested plate was measured at 450 nm. Using the prepared standard curve, the concentration of the released LDH was estimated.

[4] = test system: MCF-7 cells; assay: DNA fragmentation analysis by comet assay; type: cell-based, human
Experimental: Prior to subjecting the MCF-7 cells to compound 4, they were exposed to a caspase-3 inhibitor (Z-DEVD-FMK) in order to assess the potential involvement of caspase-3 activity in the DNA damage induced by compound 4. The occurrence of DNA damage was assessed in MCF-7 cells treated with compound 4 only (IC50 concentration) and MCF-7 cells that were pretreated with Z-DEVD-FMK (50 μM) for 1 h and then treated with compound 4 (IC50 concentration) for 24 h, utilizing the comet test. Fragmentation causes the broken DNA to be separated from the healthy cellular DNA, generating a comet tail that can be identified under a fluorescence microscope. Comet parameters were calculated using TriTek Comet Score™ software (TriTek Corp., Herndon, VA, USA), following a computerized image analysis system that recorded 100 photographs of randomly shaped comets for each slide. The tail moment and tail DNA, two often-employed markers, were combined for data finding. The Olive tail moment (OTM) has been honed to be the most precise method for assessing DNA damage. In accordance with the following Equation (2), its value can be determined by the tail’s DNA concentration and DNA mobility. OTM = quantity of tail moment × quantity of tail DNA/100(2)

[5] = test system: cleaved caspase-3 (activated caspase-3); assay: ELISA quantification of active (cleaved) caspase-3 in MCF-7 cells; type: cell-based, human; conditions: MCF-7, IC50 dose (338.33 µM), p < 0.001, result in words
Experimental: The expression levels of the human active caspase-3 protein when cleaved at Asp175/Ser176 were measured in compound 4-treated MCF-7 cells, using an ELISA method (Invitrogen, Waltham, MA, USA, Catalog # KHO1091). In a nutshell, after incubating the tested compound 4 with MCF-7 cell cultures for 2 h, the supernatant (100 μL) was plated into a 96-well ELISA plate, and the resulting pellets were discarded. Each well was then suspended with 100 μL of a caspase-3 (active) antibody detection solution and left to incubate at room temperature for 1 h. The solution was then decanted from the wells and rinsed four times. Furthermore, HRP-Anti-Rabbit Antibody solution (100 µL) was added to each well, and the plate was incubated for 30 min at room temperature. A stabilized chromogen substrate (100 µL) was transferred to each well, and the plate was allowed to incubate for 30 min at room temperature, in darkness. At 450 nm, optical density readings were taken from the tested plate after adding 100 µL of stop solution to each well. Utilizing a standard curve, the quantity of active caspase-3 protein in the treated MCF-7 cells was calculated.

[6] = test system: breast cancer cells; parameters: method as in doi:10.31788/RJC.2022.1536976; conditions: read-out: IC50 concentration against the viability of breast cancer cells; cited from earlier work
[7] = IC50 concentration 24 h, with caspase-3 inhibitor Z-DEVD-FMK (50 μM, 1 h) pretreatment

| SMILES | IC50 [1] [µM] | viability at 50 µM [1] [%] | viability at 100 µM [1] [%] | viability at 150 µM [1] [%] | viability at 300 µM [1] [%] | viability at 600 µM [1] [%] | viability at 1000 µM [1] [%] | IC50 ([2]; Homo sapiens, WI-38, doses 50 to 1000 µM) [µM] | Cytotoxic effects on normal human lung cells (wi38 cells) ([2]; result in words) | LDH levels in treated MCF-7 cells [3] [U/L] | % DNA in Tail [4, 7] [%] | Olive Tail Moment (OTM) [4, 7] | Tail Length (PX) [4, 7] [PX] | Tail Moment [4, 7] | Tail Moment ([4]; IC50 concentration, without caspase-3 inhibitor pretreatment, control 0.22 ± 0.02) | Olive Tail Moment (OTM) ([4]; IC50 concentration, without caspase-3 inhibitor pretreatment, control 0.55 ± 0.02) | % DNA in Tail ([4]; IC50 concentration, without caspase-3 inhibitor pretreatment, control 3.11 ± 1.73) [%] | Tail Length (PX) ([4]; IC50 concentration, without caspase-3 inhibitor pretreatment, control 7.52 ± 1.82) | Cleaved caspase-3 (activated caspase-3) levels versus untreated cells [5] | IC50 [6] [µM] |
| --- | --- | --- | --- | --- | --- | --- | --- | --- | --- | --- | --- | --- | --- | --- | --- | --- | --- | --- | --- | --- |
| CCCCCCOc1ccc(NC(=S)Nc2ccc(F)cc2)cc1 [Compound 4, 1-(4-fluorophenyl)-3-(4-(hexyloxy)phenyl)thiourea] | 338.3 ± 1.52 | 100 ± 2.24 | 90.2 ± 2.78 | 48.1 ± 1.15 | 21.2 ± 1.66 | 18.3 ± 1.92 | 7.28 ± 2.56 | 1463 ± 4.78 | no cytotoxic effects | 521.77 ± 30.8 | 14.37 ± 1.33 | 1.87 ± 0.34 | 7.13 ± 2.21 | 1.04 ± 0.04 | 1.72 ± 0.05 | 2.38 ± 0.06 | 17.26 ± 2.34 | 6.67 ± 1.94 | significantly elevated | – |
| CCCCCCCCOc1ccc(NC(=O)Nc2ccccc2)cc1 [Compound 2, 1-(4-(octyloxy)phenyl)-3-phenylurea] | 527.2 ± 1.28 | 98.8 ± 2.26 | 88.6 ± 2.22 | 72.2 ± 2.13 | 49.9 ± 1.77 | 38.3 ± 1.97 | 23.3 ± 2.33 | – | – | – | – | – | – | – | – | – | – | – | – | – |
| C=CCNC(=S)NC(=O)c1ccc([N+](=O)[O-])cc1 [4-nitrobenzoyl-3-allylthiourea] | – | – | – | – | – | – | – | – | – | – | – | – | – | – | – | – | – | – | – | 225 |
| CCCCCCCCCCCCCCCCOc1ccc(NC(=S)Nc2ccc(F)cc2)cc1 [Compound 6, 1-(4-fluorophenyl)-3-(4-(hexadecyloxy)phenyl)thiourea] | 711.9 ± 2.5 | 96.4 ± 2.63 | 91.7 ± 2.47 | 84.1 ± 1.83 | 79.2 ± 2.64 | 46.9 ± 2.34 | 36.7 ± 1.66 | – | – | – | – | – | – | – | – | – | – | – | – | – |
| CCCCCCCCCCCCCCCCOc1ccc(NC(=O)Nc2ccccc2)cc1 [Compound 3, 1-(4-(hexadecyloxy)phenyl)-3-phenylurea] | 619.7 ± 4.33 | 97.3 ± 2.45 | 93.6 ± 1.82 | 80.7 ± 2.44 | 64.9 ± 1.66 | 56.7 ± 2.55 | 20.9 ± 2.75 | – | – | – | – | – | – | – | – | – | – | – | – | – |
| CCCCCCOc1ccc(NC(=O)Nc2ccccc2)cc1 [Compound 1, 1-(4-(hexyloxy)phenyl)-3-phenylurea] | 726.6 ± 1.29 | 98.6 ± 2.21 | 87.3 ± 1.34 | 80.6 ± 2.76 | 67.2 ± 1.13 | 57.2 ± 2.44 | 36.4 ± 1.34 | – | – | – | – | – | – | – | – | – | – | – | – | – |
| CCCCCCCCOc1ccc(NC(=S)Nc2ccc(F)cc2)cc1 [Compound 5, 1-(4-fluorophenyl)-3-(4-(octyloxy)phenyl)thiourea] | 567.8 ± 4.28 | 98.6 ± 2.53 | 96.5 ± 2.33 | 79.5 ± 1.92 | 62 ± 1.84 | 45.4 ± 2.74 | 18 ± 1.45 | – | – | – | – | – | – | – | – | – | – | – | – | – |
